Measured values published in ChEMBL document CHEMBL4368904 (J Med Chem, 2019).
pEC50, pIC50, pKi: −log10 of the molar value. Each block holds one molecule with its values, some of them ahead of it.

What was measured:
Adenosine receptor A1 [1] = molecular target: T1, Adenosine receptor A1 (Homo sapiens, UniProt P30542); assay: Displacement of [3H]N6-R-phenylisopropyladenosine from human A1A adenosine receptor expressed in CHO cell membranes after 60 mins by scintillation proximity assay
T1 sequence (P30542 whole entry): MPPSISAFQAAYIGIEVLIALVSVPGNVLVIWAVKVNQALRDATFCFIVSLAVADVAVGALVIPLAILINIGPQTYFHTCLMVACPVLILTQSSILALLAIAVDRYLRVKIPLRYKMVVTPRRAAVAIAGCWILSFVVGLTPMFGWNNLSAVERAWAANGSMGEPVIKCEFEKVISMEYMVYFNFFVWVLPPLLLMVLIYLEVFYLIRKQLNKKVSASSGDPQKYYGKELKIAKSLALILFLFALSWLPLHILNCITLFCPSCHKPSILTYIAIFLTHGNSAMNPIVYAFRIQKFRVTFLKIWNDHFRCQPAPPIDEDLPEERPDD

Adenosine receptor A2a = Adenosine receptor A2a (Homo sapiens, UniProt P29274); assay: Displacement of [3H]2-[p-(2-carboxyethyl)phenylethylamino]-5-N-ethylcarboxamidoadenosine from human A2A adenosine receptor expressed in HEK293 cell membranes at 10 uM after 60 mins by scintillation proximity assay relative to adenosine 5-N-ethyluronamide
Adenosine receptor A2a, sequence (P29274 whole entry): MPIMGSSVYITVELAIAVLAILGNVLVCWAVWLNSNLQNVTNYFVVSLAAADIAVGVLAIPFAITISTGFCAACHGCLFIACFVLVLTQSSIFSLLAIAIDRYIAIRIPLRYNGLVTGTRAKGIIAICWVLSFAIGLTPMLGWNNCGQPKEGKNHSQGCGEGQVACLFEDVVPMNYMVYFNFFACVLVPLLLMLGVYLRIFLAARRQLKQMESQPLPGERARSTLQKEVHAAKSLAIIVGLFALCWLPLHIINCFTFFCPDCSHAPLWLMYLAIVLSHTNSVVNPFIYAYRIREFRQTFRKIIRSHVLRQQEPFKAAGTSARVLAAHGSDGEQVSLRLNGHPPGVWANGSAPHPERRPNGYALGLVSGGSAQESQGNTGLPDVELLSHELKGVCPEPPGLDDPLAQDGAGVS

Adenosine receptor A3 [2] = molecular target: T2, Adenosine receptor A3 (Homo sapiens, UniProt P0DMS8); assay: Displacement of [125I]N6-(4-amino-3-iodobenzyl)adenosine-5-N-methyluronamide from human A3A adenosine receptor expressed in CHO cell membranes after 60 mins by scintillation proximity assay
T2 sequence (P0DMS8 whole entry): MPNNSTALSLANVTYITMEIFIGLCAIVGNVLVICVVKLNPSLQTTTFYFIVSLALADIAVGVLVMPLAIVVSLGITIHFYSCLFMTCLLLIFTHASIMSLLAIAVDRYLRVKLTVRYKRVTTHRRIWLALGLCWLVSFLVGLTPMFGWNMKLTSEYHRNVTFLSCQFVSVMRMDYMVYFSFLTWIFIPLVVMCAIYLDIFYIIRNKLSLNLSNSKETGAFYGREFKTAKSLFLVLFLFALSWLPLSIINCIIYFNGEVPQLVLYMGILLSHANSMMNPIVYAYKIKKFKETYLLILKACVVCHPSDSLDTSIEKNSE

Adenosine receptor A3 [3] = molecular target: T3, Adenosine receptor A3 (Mus musculus, UniProt Q61618); assay: Displacement of [125I]N6-(4-amino-3-iodobenzyl)adenosine-5-N-methyluronamide from mouse A3A adenosine receptor expressed in CHO cell membranes after 60 mins by scintillation proximity assay
T3 sequence (Q61618 whole entry): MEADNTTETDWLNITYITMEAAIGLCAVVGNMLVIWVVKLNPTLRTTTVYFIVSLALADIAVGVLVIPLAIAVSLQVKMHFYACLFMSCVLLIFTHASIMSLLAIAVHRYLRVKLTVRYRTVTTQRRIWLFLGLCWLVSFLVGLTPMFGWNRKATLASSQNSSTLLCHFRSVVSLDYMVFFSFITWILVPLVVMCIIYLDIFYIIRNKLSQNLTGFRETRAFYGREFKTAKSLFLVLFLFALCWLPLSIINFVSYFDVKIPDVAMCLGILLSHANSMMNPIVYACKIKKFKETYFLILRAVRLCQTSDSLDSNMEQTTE

[4] = molecular target: 5-hydroxytryptamine receptor 2B (Homo sapiens, UniProt P41595); assay: Inhibition of 5HT2B (unknown origin)
5-hydroxytryptamine receptor 2B, sequence (P41595 whole entry): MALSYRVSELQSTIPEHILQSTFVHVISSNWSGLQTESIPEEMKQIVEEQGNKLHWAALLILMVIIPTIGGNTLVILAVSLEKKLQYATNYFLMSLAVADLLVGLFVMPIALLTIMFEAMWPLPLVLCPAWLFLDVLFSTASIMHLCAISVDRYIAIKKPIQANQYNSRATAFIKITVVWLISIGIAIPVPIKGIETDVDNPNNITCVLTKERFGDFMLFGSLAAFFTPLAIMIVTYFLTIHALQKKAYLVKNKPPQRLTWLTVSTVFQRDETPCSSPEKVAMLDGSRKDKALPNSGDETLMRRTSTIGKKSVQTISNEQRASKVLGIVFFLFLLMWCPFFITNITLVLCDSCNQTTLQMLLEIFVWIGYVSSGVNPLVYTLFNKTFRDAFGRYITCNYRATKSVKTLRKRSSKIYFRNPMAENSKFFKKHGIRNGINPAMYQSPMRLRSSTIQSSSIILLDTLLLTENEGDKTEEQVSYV

[5] = molecular target: T4, 5-hydroxytryptamine receptor 2C (Homo sapiens, UniProt P28335); assay: Inhibition of 5HT2C (unknown origin)
T4 sequence (P28335 whole entry): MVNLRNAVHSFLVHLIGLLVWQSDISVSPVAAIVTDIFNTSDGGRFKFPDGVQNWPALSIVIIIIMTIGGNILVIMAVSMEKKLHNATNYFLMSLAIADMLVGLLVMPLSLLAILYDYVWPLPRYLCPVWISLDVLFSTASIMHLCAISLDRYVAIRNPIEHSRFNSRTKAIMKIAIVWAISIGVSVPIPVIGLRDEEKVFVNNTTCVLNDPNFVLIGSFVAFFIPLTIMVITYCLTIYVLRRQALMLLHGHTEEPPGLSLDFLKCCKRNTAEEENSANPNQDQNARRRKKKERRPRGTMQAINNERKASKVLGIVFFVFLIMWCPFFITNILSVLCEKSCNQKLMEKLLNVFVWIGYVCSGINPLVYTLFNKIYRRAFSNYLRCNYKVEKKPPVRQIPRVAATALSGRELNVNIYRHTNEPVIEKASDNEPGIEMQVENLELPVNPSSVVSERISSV

Translocator protein = Translocator protein (Homo sapiens, UniProt P30536); assay: Inhibition of TSPO (unknown origin)
Translocator protein, sequence (P30536 whole entry): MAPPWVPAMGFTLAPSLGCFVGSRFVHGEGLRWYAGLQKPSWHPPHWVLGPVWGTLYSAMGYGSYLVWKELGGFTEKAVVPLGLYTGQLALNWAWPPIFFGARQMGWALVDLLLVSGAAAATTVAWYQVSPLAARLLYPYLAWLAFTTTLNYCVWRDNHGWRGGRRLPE

[6] = molecular target: Alpha-2A adrenergic receptor (Homo sapiens, UniProt P08913); assay: Inhibition of alpha2a receptor (unknown origin)
Alpha-2A adrenergic receptor, sequence (P08913 whole entry): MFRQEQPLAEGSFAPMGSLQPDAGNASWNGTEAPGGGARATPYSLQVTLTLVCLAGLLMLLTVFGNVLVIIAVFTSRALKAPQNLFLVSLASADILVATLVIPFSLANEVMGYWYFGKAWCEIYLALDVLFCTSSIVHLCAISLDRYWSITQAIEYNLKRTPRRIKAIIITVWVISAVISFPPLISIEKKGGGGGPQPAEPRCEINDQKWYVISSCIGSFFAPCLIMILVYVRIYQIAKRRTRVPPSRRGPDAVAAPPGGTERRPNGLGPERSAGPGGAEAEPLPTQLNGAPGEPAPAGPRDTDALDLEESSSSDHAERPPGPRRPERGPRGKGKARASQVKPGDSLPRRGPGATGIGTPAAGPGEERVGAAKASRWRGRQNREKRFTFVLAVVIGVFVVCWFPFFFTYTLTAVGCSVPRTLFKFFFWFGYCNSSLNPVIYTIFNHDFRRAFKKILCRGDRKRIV

Adenosine receptor A1 [7] = molecular target: T5, Adenosine receptor A1 (Mus musculus, UniProt Q60612); assay: Displacement of [3H]N6-R-phenylisopropyladenosine from mouse A1A adenosine receptor expressed in CHO cell membranes after 60 mins by scintillation proximity assay
T5 sequence (Q60612 whole entry): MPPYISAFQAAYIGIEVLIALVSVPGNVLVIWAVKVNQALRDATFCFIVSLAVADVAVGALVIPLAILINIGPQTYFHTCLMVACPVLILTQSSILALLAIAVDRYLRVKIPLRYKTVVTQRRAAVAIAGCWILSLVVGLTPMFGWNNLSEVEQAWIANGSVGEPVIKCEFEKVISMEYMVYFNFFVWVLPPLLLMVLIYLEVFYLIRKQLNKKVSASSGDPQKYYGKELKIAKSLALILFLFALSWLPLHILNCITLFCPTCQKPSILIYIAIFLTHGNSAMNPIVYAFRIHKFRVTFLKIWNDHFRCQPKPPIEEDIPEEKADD

Mus musculus [8] = assay: Induction of hypothermia in C57BL/6J mouse assessed as body temperature at 3 mg/kg, ip measured at 60 mins post dose (reference value: 36.3 +/- 0.8 degC); type: functional
Mus musculus [9] = assay: Induction of hypothermia in C57BL/6J mouse assessed as activity counts at 3 mg/kg, ip measured at 60 mins post dose (reference value: 15.5 +/- 5.5); type: functional
[10] = Elimination half life in CD1 mouse at 3 to 30 mg/kg, ip; type: ADME, organism-based; settings: in vivo
[11] = Elimination half life in CD1 mouse at 1 to 10 mg/kg, po; type: ADME, organism-based; settings: in vivo
[12] = Oral bioavailability in CD1 mouse at 1 mg/kg; type: ADME, organism-based; settings: in vivo
[13] = Oral bioavailability in CD1 mouse at 3 mg/kg; type: ADME, organism-based; settings: in vivo
[14] = Stability in simulated gastric fluid after 120 mins; type: ADME; settings: read-out: Stability
[15] = Protein binding in rat plasma; type: ADME, cell-free
[16] = Protein binding in mouse plasma; type: ADME, cell-free
[17] = Toxicity in Sprague-Dawley rat assessed as reduction in heart rate at 3 mg/kg, ip; type: organism-based; settings: in vivo
[18] = Toxicity in rhesus monkey at 1 to 3 mg/kg dosed in food treat measured up to 4 hrs post dose; type: organism-based, Macaca mulatta; settings: in vivo, po
[19] = Oral bioavailability in cynomolgus monkey at 1 mg/kg; type: ADME, organism-based, Macaca fascicularis; settings: in vivo
[20] = Toxicity in cynomolgus monkey effect on clinical parameters at 0.5 mg/kg, iv or 1 mg/kg, po measured after 1 day post dose; type: organism-based, Macaca fascicularis; settings: in vivo, 24 h
Adenosine receptor A1 [21] = molecular target: Adenosine receptor A1 (Rattus norvegicus, UniProt P25099); assay: Agonist activity at rat A1A adenosine receptor expressed in CHO-K1 cell membranes incubated for 60 mins by [35S]GTPgammaS binding assay; type: functional
Adenosine receptor A1 (Rattus norvegicus, UniProt P25099), sequence (P25099 whole entry): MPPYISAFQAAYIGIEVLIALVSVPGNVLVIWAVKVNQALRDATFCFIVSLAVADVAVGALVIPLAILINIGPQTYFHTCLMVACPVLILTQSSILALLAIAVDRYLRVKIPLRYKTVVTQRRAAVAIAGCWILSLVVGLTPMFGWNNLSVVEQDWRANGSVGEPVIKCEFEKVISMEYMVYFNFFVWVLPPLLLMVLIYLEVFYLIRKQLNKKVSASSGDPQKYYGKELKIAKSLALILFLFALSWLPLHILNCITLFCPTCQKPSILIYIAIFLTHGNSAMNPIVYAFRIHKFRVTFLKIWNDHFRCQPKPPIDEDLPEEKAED

[22] = Stability in simulated intestinal fluid; type: ADME; settings: simulated gi fluid
[23] = Stability in human liver microsomes; type: ADME, Microsome
[24] = Toxicity in Sprague-Dawley rat assessed as increase in blood pressure at 3 mg/kg, ip; type: organism-based; settings: in vivo
Cytochrome P450 2C9 = Cytochrome P450 2C9 (Homo sapiens, UniProt P11712)
Cytochrome P450 2C9, sequence (P11712 whole entry): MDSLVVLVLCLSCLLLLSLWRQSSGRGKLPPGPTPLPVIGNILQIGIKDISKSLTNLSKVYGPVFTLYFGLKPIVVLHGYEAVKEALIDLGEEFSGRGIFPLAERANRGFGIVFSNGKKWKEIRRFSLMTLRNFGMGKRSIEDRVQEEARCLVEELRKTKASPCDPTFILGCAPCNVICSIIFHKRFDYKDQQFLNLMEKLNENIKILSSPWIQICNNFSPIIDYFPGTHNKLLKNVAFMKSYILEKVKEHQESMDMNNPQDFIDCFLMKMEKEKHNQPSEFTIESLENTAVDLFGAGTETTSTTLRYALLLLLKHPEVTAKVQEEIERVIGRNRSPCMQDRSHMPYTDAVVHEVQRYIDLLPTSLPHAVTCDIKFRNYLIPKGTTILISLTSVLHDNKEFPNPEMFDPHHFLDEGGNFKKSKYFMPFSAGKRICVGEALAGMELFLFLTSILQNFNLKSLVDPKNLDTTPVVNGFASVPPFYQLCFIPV

Cytochrome P450 2D6 = Cytochrome P450 2D6 (Homo sapiens, UniProt P10635)
Cytochrome P450 2D6, sequence (P10635 whole entry): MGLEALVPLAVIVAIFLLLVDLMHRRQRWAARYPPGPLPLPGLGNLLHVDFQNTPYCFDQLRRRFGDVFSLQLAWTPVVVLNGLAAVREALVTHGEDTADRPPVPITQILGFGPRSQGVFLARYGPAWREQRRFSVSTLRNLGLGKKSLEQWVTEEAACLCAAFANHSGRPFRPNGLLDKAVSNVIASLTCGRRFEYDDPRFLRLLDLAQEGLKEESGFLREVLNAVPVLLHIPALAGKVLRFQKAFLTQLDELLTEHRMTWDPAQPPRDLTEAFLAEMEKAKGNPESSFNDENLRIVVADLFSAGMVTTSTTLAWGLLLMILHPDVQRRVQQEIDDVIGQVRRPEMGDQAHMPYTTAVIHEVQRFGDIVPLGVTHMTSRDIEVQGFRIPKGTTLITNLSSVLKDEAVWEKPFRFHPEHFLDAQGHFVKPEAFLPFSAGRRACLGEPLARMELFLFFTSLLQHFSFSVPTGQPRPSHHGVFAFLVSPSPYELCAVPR

Cytochrome P450 3A4 = Cytochrome P450 3A4 (Homo sapiens, UniProt P08684)
Cytochrome P450 3A4, sequence (P08684 whole entry): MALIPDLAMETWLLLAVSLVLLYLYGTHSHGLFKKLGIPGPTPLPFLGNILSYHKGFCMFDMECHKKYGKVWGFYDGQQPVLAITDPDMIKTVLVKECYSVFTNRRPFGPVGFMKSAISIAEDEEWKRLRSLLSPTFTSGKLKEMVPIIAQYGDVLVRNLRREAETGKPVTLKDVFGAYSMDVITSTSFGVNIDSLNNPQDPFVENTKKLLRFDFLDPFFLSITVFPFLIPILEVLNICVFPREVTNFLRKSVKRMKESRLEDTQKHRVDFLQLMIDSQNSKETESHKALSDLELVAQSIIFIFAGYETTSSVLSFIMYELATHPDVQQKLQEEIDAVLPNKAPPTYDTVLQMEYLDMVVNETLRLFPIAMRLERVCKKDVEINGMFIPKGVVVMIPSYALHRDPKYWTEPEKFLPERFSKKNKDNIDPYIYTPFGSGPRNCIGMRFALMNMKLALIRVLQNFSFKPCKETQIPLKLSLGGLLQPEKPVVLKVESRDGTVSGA

- pKi (Adenosine receptor A1 [1]): 6.02
- inhibition (Adenosine receptor A2a): 46%
- pKi (Adenosine receptor A3 [2]): 6.09
- pKi (Adenosine receptor A3 [3]): 6.41
- pKi [4]: 5.54
- pKi [5]: 5.08
- pKi (Translocator protein): 5.62
- pKi [6]: 5.16
Structure (SMILES): O[C@@H]1[C@H](O)[C@@H]2C[C@@H]2[C@H]1n1cnc2c(NC(C3CCC3)C3CCC3)nc(Cl)nc21

- pKi (Adenosine receptor A1 [7]): 8.28
- beta t1/2 [10]: 2.5 to 4 h
- beta t1/2 [11]: 5 to 11 h
- bioavailability [12]: 98%
- bioavailability [13]: 124%
- remaining at 2 h [14]: 51%
- PPB [15]: 90%
- PPB [16]: 94%
- F [19]: 24%
- pEC50 (Adenosine receptor A1 [21]): 8.18
- Stability [22]: Stable
- Stability [23]: Stable
- pIC50 (Cytochrome P450 2C9): < 4.60
- pIC50 (Cytochrome P450 2D6): < 4.60
- pIC50 (Cytochrome P450 3A4): < 4.60
Structure (SMILES): O[C@@H]1[C@H](O)[C@@H]2C[C@@H]2[C@H]1n1cnc2c(NC(C3CC3)C3CC3)nc(Cl)nc21
- T (Mus musculus [8]): 33.4 °C
- Activity (Mus musculus [9]): 5.5
- Activity [17]: Toxic
- Activity [18]: Non-Toxic
- Activity [20]: Non-Toxic
- Activity [24]: Toxic
